Laboratory results from patent US20160008339A1, “PSORALEN DERIVATIVES FOR PREVENTING OR TREATING HEART FAILURE OR CARDIAC HYPERTROPHY” (MAX-DELBRUCK-CENTRUM FUR MOLEKULARE MEDIZIN, priority 2012, published 2016).
“Also recorded” adds a separate entry of the source.

What was measured:
[1] = system: primary neonatal rat cardiomyocytes; assay: Beat frequency of neonatal cardiomyocytes by Fluo-4 calcium measurement; assay type: cell-based
Protocol: For cultivation of primary neonatal rat cardiomyocytes, hearts of two to three days old rats were obtained and quickly stored on ice in ADS buffer (116.4 mM NaCl, 5.4 mM KC, 5.6 mM dextrose, 10.9 mM NaH2PO4, 405.7 μmol/L MgSO4, 20 mM Hepes, pH 7.3). Under sterile conditions, the hearts were cleaned from blood and vessels, cut into small pieces and transferred into falcon tubes. The ADS buffer was exchanged against an enzyme solution (see table below). Within four cycles each with five ml enzyme solution and an enzyme mix comprising collagenase and pancreatin, isolated cells were released from the tissue (12 min at 37° C. in a water bath with approx. 220 rpm).
The supernatant with the isolated cells was collected, transferred in fetal calf serum (FCS, 2.5 ml on ice) and subsequently centrifugated in FCS (100 g for 3 min at 4° C.). The supernatant of the centrifugation was discarded and the pellet was resuspended in 5 ml cold plating medium. After an additional centrifugation, the pellet was resuspended in 15 ml medium, transferred into a dish and incubated for two hours at 37° C. to allow the settling of the fibroblasts. The cardiomyocytes in the supernatant were counted with a Scepter Handheld Automated Cell Counter and transferred in dishes coated with gelatine. On the following day the medium was changed.
The frequency of contraction could be determined in a similar manner with a calcium sensor (Fluo-4). In a laser-scanning microscope, Fluo-4 was excited with an argon laser (488 nm) and the emission signals were detected and collected at a wavelength of 505 nm. The fluorescence intensity represented the intracellular concentration of calcium ions. Usually, the line-scan mode was used for image recording, and the line-scan images were recorded with a speed of 1.54 or 1.92 ms per line along the longitudinal axis of the cell. After the sequential image recording, a two-dimensional image with 512×100 lines or 512×2000 lines was generated and saved for later analysis.
Additional calcium measurements were performed. […] The fluorescence dye Fluo-4 was added after 20 min. Fluo-4 is a calcium sensor, which is used for investigating the calcium increase in cells. In cardiomyocytes the dye serves for examining the contractility. During contraction and relaxation, the calcium concentrations differ in the cytosol of cardiomyocytes. The fluorescence intensity of Fluo-4 increases with an increasing calcium concentration, and a decreasing calcium concentration will cause reduced fluorescence intensity. A frequency could be calculated from the fluo-4 fluorescence oscillation by a time depended analysis, wherein the fluorescence was measured over a period of two hours. The ground state at the moment before application (black), the period 10 to 30 sec after application (dark grey) and 70 to 110 sec after application (light grey) were evaluated (FIG. 5). Application refers to the adding of PE or adrenaline. […] The statistical analysis was performed according to the method of analysis of variance (ANOVA).

[2] = target: T1, AKAP-Lbc (guanine nucleotide exchange on RhoA) (Homo sapiens, UniProt Q12802); assay: RhoGEF nucleotide exchange assay (GDP against mGTP on RhoA); conditions: IC50 (fifty percent inhibition of nucleotide exchange), 15 min
T1 sequence (Q12802 1994-2333): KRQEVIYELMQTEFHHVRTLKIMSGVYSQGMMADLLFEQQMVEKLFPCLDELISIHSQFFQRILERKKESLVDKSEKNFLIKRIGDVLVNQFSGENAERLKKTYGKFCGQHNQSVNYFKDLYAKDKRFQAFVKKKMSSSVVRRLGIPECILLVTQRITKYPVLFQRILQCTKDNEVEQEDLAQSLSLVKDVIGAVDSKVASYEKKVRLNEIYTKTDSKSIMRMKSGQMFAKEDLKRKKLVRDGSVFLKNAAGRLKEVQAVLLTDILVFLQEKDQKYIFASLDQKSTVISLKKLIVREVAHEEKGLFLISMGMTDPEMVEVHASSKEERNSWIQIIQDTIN
Protocol: Following the protocol of the RhoGEF exchange assay Biochem Kit, a nucleotide exchange experiment for AKAP-Lbc and RhoA was established. The fluorescence labelled nucleotide analogues 2′(3′)-O—(N-methylanthraniloyl)-guanosine diphosphate and 2′(3′)-O—(N-methylanthraniloyl)-guanosine triphosphate, hereinafter referred to mGDP and mGTP, were used for tracing the nucleotide exchange.
25 μl depletion buffer (100 mmol/L sodium phosphate, pH 7.4, 5 mmol/L EDTA, 200 mmol/L ammonium sulfate) with an excess of mGDP (5 mmol/L) were added to 200 μg recombinant his6-RhoA (25 μl) and incubated one hour at room temperature. Then, magnesium chloride (MgCl2) was added to a final concentration of 10 mmol/L.
By centrifugation with Vivaspin® 500 concentrator vials (MWCO 5 kDa, 10 min, 10000 rpm) and buffer (100 mmol/L sodium phosphate, pH 7.4, 100 mmol/L NaCl, protease inhibitor [cOmplete, Mini, EDTA-free protease inhibitor cocktaile]) RhoA-mGDP was washed twice and reduced to 100 μl. 1 μmol/L RhoA-mGDP and 0.5 μmol/L AKAP-Lbc DHPH in nucleotide exchange buffer (40 mmol/L Tris pH 7.5; 100 mmol/L NaCl; 20 mmol/L MgCl2, 100 μg/ml BSA) were used for the nucleotide exchange. The fluorescence measurements were performed in a micro plate reader (TECAN Safire) over a period of 15 min, whereby the fluorophore of mGDP was excited at 360 nm and the resulting fluorescence signal was determined at 440 nm.
At a concentration relation of 2 μmol/L protein and 1 μmol/L mGTP, an ideal fluorescence signal-to-noise-ratio was found in the nucleotide exchange buffer (40 mM Tris pH 7.5, 100 mmol/L NaCl, 20 mmol/L MgCl2, 100 μg/ml BSA). The fluorescence signal for mGTP was measured analogous to mGDP (λexc=360 nm; λem=440 nm) in a micro plate reader (TECAN Safire) over a period of 15 min. The experiment was performed in a 384-well plate.

[3] = system: Gα12 coupled and AKAP-Lbc mediated activation of RhoA; assay: Rhotekin-based precipitation of RhoA-GTP, HEK293 transfected with Gα12QL / AKAP-Lbc; assay type: cell-based, human; conditions: 50 μmol/L, 30 min, vs DMSO
Protocol: HEK293 cells were seeded in 6-well plates. One day later the cells were transfected with the following plasmid DNAs:
After additional 24 hours the cells were treated with compound 31413 (50 μmol/L) or DMSO for 30 min at 37° C. Subsequently, the cells were lysed in precipitation buffer (50 mM Tris pH 7.4, 150 mmol/L NaCl, 4 mmol/L MgCl2; 10% v/v glycerol, 1% octylphenoxypolyethoxyethanol [IPEGAL]) and centrifugated 20000 g for two minutes to remove cell debris. 40 μl of the lysate were taken for the determination of the total RhoA content. The residual lysate was incubated with 40 μl GSH-sepharose coupled GST-rhotekin for one hour at 4° C. Then, the GSH-sepharose was washed twice with precipitation buffer, enriched with SDS-PAGE loading buffer and heated 5 min at 90° C. […] The ratio between total RhoA and Rho-GTP was densitometrically determined.
The activation state of RhoA was determined with a Rho binding region of the rhotekin protein, a Rho effector, immobilised on a sepharose bead in the presence and absence of compound 31413. […]
GTP-bound RhoA was detected by rhotekin precipitation (FIG. 3). The precipitation of RhoA from transfected HEK293 cells was performed with a rhotekin sepharose, and analysed with SDS-PAGE and immunoblotting with a RhoA specific antibody. […] The precipitated RhoA-GTP was separated with SDS-PAGE, blotted and detected with a specific anti-RhoA antibody.

[4] = system: different RhoGEF constructs; assay: Dual luciferase SRE reporter assay, other RhoGEF constructs in HEK293; assay type: cell-based, human; conditions: 50 μmol/L, vs DMSO treated control
Protocol: The experiments were performed following the protocol of the dual luciferase reporter assay (Promega). HEK293 cells were transfected with plasmid DNAs of two luciferases and plasmids of different exchange factors. A serum response element was located ahead of the coding luciferase sequences. Activated RhoA activates the serum response element, which enables the expression of the firefly luciferase. After 4 hours the cells were treated with compound 31413. After additional twenty four hours the cells were lysed in passive lysis buffer (Promega). The luciferase activity in the cell lysate was determined by measurement of the luminescence signal according to above mentioned protocol with 96 well plate (OptiPlate 96) and LarII- and. Stop-&Glow-substrate solutions in a micro plate reader
To rule out that other RhoGEF are influenced by the inventive compounds in their activity, HEK293 cells were transfected with different RhoGEF constructs. Additionally, as normalization control, two luciferase plasmids were added, which code for a serum response element (SRE) coupled firefly luciferase and for a Renilla luciferase, respectively. […] The luciferase activities were determined in the lysate. […] Further, the luciferase activity of the indicated RhoGEFs was analysed in absence or presence of 50 μmol/L compound 31413 (FIG. 4 B).

[5] = Fluo-4, pre-incubation 2.5 μmol/L

Structure (SMILES): COc1ccc(-c2coc3cc4oc(=O)c(C)c(C)c4cc23)cc1 [Compound 31413, 3-(4-methoxyphenyl)-5,6-dimethyl-furo[3,2-g]chromen-7-one]
- adrenalin (beta-adrenoceptor)-induced increase in cardiac myocyte beating frequency [1]: does not, however, affect
- PE induced increase of beat rate [1, 5]: inhibited only the PE induced increase of beat rate
- adrenaline induced increase of beat rate [1, 5]: not the adrenaline induced one
- IC50 [2]: 25.9 µM
- amount of activated GTP-bound RhoA precipitated [3]: significantly decreased amount of activated GTP-bound RhoA; also recorded: less RhoA-GTP was precipitated
- luciferase activity of the indicated RhoGEFs [4]: None of the investigated GEF shows a significant reduction
